Measured values published in ChEMBL document CHEMBL4177569, “Design, synthesis and preliminary antiproliferative activity studies of new diheteroaryl thioether derivatives” (Bioorg Med Chem Lett, 2017).

Assays:
Format in all cases: functional, cell-based
[1] = system: NCI-H1650; test: Antiproliferative activity against human NCI-H1650 cells after 48 hrs by MTT assay; conditions: NCI-H1650, 48 h
[2] = system: ECa-109 cell line; test: Antiproliferative activity against human EC109 cells after 48 hrs by MTT assay; conditions: ECa-109, 48 h
[3] = system: MKN-45; test: Antiproliferative activity against human MKN45 cells after 48 hrs by MTT assay; conditions: MKN-45, 48 h
[4] = system: MGC-803; test: Antiproliferative activity against human MGC803 cells after 48 hrs by MTT assay; conditions: MGC-803, 48 h

Work on `O=c1[nH]cc(F)c(=O)[nH]1` [FLUOROURACIL] yielded an IC50 [1] of 14.2 µM, an IC50 [2] of 6.21 µM and an IC50 [3] of 8.89 µM. The IC50 [4] was 7.52 µM.
